Measured values reported in patent US20050142169A1, “Palatability enhanced composition and method for animal consumption” (priority 2003, published 2005).

System: cats
Assay: two-bowl preference test, Example 7 (Feline w/d)
Format: in vivo, cat
Conditions: dry wt. of kibble
Source text: Finally, a commercial dry palatant enhancer (1.4% dry weight basis) was topically applied to the dry kibbles to complete the test composition.

[1] = Exp. No. 1, second set of experiments, 5 ppm
[2] = Exp. No. 2, second set of experiments, 20 ppm

SMILES: CCC1OC(C)=C(O)C1=O (stereo not shown) [5-methyl-2-ethyl-4-hydroxy-3(2H)-furanone]
- Intake Ratio (Exp. No. 1, 5 ppm): 0.8254
- Preference (%) control composition (Exp. No. 1, 5 ppm): 12.0%
- Preference (%) test composition (Exp. No. 1, 5 ppm): 88.0%
- Status (vs. control) (Exp. No. 1, 5 ppm): Win
- Intake Ratio [1]: 0.7476
- Preference (%) control composition [1]: 21.7%
- Preference (%) test composition [1]: 78.3%
- Status (vs. control) [1]: Win
- Intake Ratio (Exp. No. 2, 20 ppm): 0.9731
- Preference (%) control composition (Exp. No. 2, 20 ppm): 0.0%
- Preference (%) test composition (Exp. No. 2, 20 ppm): 100.0%
- Status (vs. control) (Exp. No. 2, 20 ppm): Win
- Intake Ratio [2]: 0.8679
- Preference (%) control composition [2]: 8.0%
- Preference (%) test composition [2]: 92.0%
- Status (vs. control) [2]: Win
